Like-named read-outs stand apart in the source and are kept apart here. A value given as a limit tells only on which side of the number the result lay.

One experiment has as its target RET tyrosine kinase (Homo sapiens (Human), UniProt P07949). Put plainly: Assay of small molecular compounds for inhibiting the activity of RET kinase (LANCE TR-FRET).
Another experiment has as its target VEGFR2 tyrosine kinase (Homo sapiens (Human), UniProt P35968). Briefly: Assay of small molecular compounds for inhibiting the activity of VEGFR-2 kinase (LANCE TR-FRET). For orientation: Time-resolved FRET reads energy transfer from a long-lived donor to a nearby acceptor.

Sequence of VEGFR2 tyrosine kinase (P35968 20-1356): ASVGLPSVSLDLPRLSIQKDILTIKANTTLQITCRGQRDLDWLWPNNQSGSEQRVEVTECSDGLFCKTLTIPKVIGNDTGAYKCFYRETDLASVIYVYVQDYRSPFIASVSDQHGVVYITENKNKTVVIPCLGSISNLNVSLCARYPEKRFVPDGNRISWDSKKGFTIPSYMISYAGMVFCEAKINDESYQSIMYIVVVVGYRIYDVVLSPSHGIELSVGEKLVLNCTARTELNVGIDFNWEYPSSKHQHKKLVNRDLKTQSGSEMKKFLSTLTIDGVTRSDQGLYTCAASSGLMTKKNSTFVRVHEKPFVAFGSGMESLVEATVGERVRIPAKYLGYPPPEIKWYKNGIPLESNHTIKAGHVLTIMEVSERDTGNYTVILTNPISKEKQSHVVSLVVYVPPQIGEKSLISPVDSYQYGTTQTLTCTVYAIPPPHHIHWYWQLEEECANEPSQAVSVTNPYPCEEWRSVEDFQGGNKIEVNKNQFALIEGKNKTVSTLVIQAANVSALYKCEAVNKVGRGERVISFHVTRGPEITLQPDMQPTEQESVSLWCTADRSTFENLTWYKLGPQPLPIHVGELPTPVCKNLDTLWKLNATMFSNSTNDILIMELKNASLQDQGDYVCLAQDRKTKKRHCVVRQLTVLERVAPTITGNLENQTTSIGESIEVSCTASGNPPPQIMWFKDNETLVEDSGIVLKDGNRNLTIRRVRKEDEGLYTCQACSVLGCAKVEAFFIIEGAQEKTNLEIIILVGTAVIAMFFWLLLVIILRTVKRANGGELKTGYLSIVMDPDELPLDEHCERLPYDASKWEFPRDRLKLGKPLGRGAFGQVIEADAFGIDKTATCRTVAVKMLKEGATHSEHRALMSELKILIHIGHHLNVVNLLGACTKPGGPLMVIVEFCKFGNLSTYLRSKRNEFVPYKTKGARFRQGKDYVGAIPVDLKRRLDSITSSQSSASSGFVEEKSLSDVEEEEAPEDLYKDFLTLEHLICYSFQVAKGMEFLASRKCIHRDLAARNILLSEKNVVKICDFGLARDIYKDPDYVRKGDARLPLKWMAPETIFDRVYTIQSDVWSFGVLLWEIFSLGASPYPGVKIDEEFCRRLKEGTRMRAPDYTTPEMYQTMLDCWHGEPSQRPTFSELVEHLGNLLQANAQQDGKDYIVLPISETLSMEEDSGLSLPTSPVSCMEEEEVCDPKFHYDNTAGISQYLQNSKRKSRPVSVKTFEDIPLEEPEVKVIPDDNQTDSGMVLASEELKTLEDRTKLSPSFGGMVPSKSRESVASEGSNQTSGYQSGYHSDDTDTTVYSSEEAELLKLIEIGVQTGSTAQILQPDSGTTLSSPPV
Sequence of RET tyrosine kinase (P07949 29-1114): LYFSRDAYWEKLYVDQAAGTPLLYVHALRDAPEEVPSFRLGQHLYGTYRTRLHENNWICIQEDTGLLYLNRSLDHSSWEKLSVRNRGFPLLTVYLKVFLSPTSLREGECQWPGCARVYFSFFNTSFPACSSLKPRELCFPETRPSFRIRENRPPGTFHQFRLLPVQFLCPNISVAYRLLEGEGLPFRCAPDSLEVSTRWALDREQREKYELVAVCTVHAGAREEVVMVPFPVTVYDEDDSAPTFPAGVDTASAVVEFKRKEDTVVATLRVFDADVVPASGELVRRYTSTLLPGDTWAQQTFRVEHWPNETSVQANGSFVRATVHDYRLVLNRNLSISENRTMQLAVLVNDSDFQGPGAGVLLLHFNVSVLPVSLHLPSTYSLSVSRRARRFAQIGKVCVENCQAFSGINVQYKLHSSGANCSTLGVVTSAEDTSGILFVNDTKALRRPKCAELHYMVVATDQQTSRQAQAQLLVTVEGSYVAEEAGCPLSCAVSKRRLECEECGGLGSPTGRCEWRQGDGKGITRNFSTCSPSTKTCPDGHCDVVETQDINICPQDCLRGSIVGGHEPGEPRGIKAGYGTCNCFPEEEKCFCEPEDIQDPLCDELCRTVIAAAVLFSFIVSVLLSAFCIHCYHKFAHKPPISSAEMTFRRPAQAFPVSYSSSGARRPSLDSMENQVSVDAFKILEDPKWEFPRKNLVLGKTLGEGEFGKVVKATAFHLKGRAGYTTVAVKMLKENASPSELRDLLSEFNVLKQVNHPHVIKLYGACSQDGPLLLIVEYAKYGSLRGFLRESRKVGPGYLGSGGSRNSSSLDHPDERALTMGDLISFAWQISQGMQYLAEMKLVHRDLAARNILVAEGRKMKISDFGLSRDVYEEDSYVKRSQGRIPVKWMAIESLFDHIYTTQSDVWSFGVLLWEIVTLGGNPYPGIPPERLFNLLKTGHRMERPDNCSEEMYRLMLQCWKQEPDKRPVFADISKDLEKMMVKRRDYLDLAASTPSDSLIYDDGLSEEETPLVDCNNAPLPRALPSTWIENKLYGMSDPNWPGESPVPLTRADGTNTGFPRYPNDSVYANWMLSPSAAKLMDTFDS
Protocol for VEGFR2 tyrosine kinase: The assay is based on the LANCE TR-FRET technology of Perkin Elmer Inc., and the assay method is as follows:
2.5 μL of the gradient-diluted compounds were taken with a transfer pipette to a 384-well plate.
Addition of enzyme: 5 μL of 2× VEGFR2 kinase solution (concentration was 0.5 nM) was taken with a transfer pipette to the corresponding reaction well of the 384-well plate, mixed well and pre-reacted at room temperature for 30 minutes.
2.5 μL 4× Ultra ULight™-JAK-1 (Tyr1023) Peptide (concentration was 200 nM)/ATP (concentration was 40 μMM) mixture was taken with a transfer pipette to the corresponding reaction well of the 384-well plate.
Negative control: 2.5 μL/well 4× substrate/ATP mixture and 7.5 μL 1× Kinase Assay Buffer were added to the wells of the 384-well plate.
The final concentration of DMSO in the reaction system was 4%.
The mixture was mixed well and then centrifuged and reacted at room temperature in dark for 60 min.
The 384-well plate was placed into the Envision plate reader and the signal was detected using the appropriate program.

By IC50 is commonly meant the point on the concentration scale where inhibition reaches its midpoint. As for `CCNC(=O)Nc1ccc(Oc2ccnc3cc(OCCCN4CCOCC4)c4c(c23)OCCO4)cc1Cl` [Example 86, 1-(2-chloro-4-((5-(3-morpholinopropoxy)-2,3-dihydro-[1,4]dioxino[2,3-f]quinolin-10-yl)oxy)phenyl)-3-ethylurea], the IC50 at RET tyrosine kinase and at VEGFR2 tyrosine kinase was less than 50 nM in each case.
For the molecule `CCCNC(=O)Nc1ccc(Oc2ccnc3cc(OCCCN4CCOCC4)c4c(c23)OCCO4)cc1Cl` [Example 87, 1-(2-chloro-4-((5-(3-morpholinopropoxy)-2,3-dihydro-[1,4]dioxino[2,3-f]quinolin-10-yl)oxy)phenyl)-3-prop ylurea], the IC50 against RET tyrosine kinase and on VEGFR2 tyrosine kinase was less than 50 nM throughout.
As for `O=C(Nc1ccc(Oc2ccnc3cc(OCCCN4CCCCC4)c4c(c23)OCCO4)cc1Cl)NC1CC1` [Example 54, 1-(2-chloro-4-((5-(3-(piperidin-1-yl)propoxy)-2,3-dihydro-[1,4]dioxino[2,3-f]quinolin-10-yl)oxy)phenyl)-3-cyclopropylurea], the IC50 on RET tyrosine kinase (read-out: RET IC50) and on VEGFR2 tyrosine kinase (read-out: VEGFR-2 IC50) was less than 50 nM each time.
For the molecule `COCCCOc1cc2nccc(Oc3ccc(NC(=O)NC4CC4)c(Cl)c3)c2c2c1OCCO2` [Example 51, 1-(2-chloro-4-((5-(3-methoxypropoxy)-2,3-dihydro-[1,4]dioxino[2,3-f]quinolin-10-yl)oxy)phenyl)-3-cyclopropylurea], the IC50 on RET tyrosine kinase (read-out: RET IC50) and on VEGFR2 tyrosine kinase (read-out: VEGFR-2 IC50) was less than 50 nM in each case.
Turning to `CN(C)CCCCCCOc1cc2nccc(Oc3ccc(NC(=O)NC4CC4)c(Cl)c3)c2c2c1OCCO2` [Example 64, 1-(2-chloro-4-((5-((6-(dimethylamino)hexyl)oxy)-2,3-dihydro-[1,4]dioxino[2,3-f]quinolin-10-yl)oxy)phenyl)-3-cyclopropylurea], the IC50 on RET tyrosine kinase (read-out: RET IC50) and at VEGFR2 tyrosine kinase (read-out: VEGFR-2 IC50) was less than 50 nM in each case.
On to `CNC(=O)Nc1ccc(Oc2ccnc3cc(OC)c4c(c23)OCCO4)cc1Cl` [Example 79, 1-(2-chloro-4-((5-methoxy-2,3-dihydro-[1,4]dioxino[2,3-f]quinolin-10-yl)oxy)phenyl)-3-methylurea], for which the IC50 on RET tyrosine kinase (read-out: RET IC50) and on VEGFR2 tyrosine kinase (read-out: VEGFR-2 IC50) was less than 50 nM each time.
Consider `N#CCCCOc1cc2nccc(Oc3ccc(NC(=O)NC4CC4)c(Cl)c3)c2c2c1OCCO2` [Example 93, 1-(2-chloro-4-((5-(3-cyanopropoxy)-2,3-dihydro-[1,4]dioxino[2,3-f]quinolin-10-yl)oxy)phenyl)-3-cyclopropylurea], for which the IC50 on RET tyrosine kinase (read-out: RET IC50) and on VEGFR2 tyrosine kinase (read-out: VEGFR-2 IC50) was less than 50 nM throughout.
Regarding `COCCN(C)CCCOc1cc2nccc(Oc3ccc(NC(=O)Nc4ccc(Cl)c(C(F)(F)F)c4)cc3)c2c2c1OCCO2` [Example 27, 1-(4-chloro-3-(trifluoromethyl)phenyl)-3-(4-((5-(3-((2-methoxyethyl)(methyl)amino)propoxy)-2,3-dihydro-[1,4]dioxino[2,3-f]quinolin-10-yl)oxy)phenyl)urea], the IC50 is less than 50 nM at RET tyrosine kinase (read-out: RET IC50) and 50 to 500 nM against VEGFR2 tyrosine kinase.
In the case of `Cc1ccc(C(F)(F)F)cc1NC(=O)Nc1ccc(Oc2ccnc3cc(OCCCN4CCOCC4)c4c(c23)OCCO4)cc1` [Example 96, 1-(2-methyl-5-(trifluoromethyl)phenyl)-3-(4-((5-(3-morpholinopropoxy)-2,3-dihydro-[1,4]dioxino[2,3-f]quinolin-10-yl)oxy)phenyl)urea], the IC50 is less than 50 nM at RET tyrosine kinase (read-out: RET IC50) and 50 to 500 nM on VEGFR2 tyrosine kinase.
For `COCCN(C)CCCOc1cc2nccc(Oc3ccc(NC(=O)NC4CC4)c(Cl)c3)c2c2c1OCCO2` [Example 62, 1-(2-chloro-4-((5-(3-((2-methoxyethyl)(methyl)amino)propoxy)-2,3-dihydro-[1,4]dioxino[2,3-f]quinolin-10-yl)oxy)phenyl)-3-cyclopropylurea], the half-inhibitory concentration (IC50) on RET tyrosine kinase (read-out: RET IC50) and at VEGFR2 tyrosine kinase (read-out: VEGFR-2 IC50) was less than 50 nM each time.

Source of the values: patent publication US11479559B2, “Urea-substituted aromatic ring-linked dioxinoquinoline compounds, preparation method and uses thereof” (BEIJING SCITECH-MQ PHARMACEUTICALS LIMITED, priority 2018, dated 2022).
